The test system of one series is skin. As to conditions: rabbits.
The next series deals with tyrosinase (Homo sapiens, UniProt P14679). The following applies: higher than beta-arbutin; cited from earlier work.

Read-outs that look alike come from different tables or passages of the source.

Chain of tyrosinase (P14679 19-529): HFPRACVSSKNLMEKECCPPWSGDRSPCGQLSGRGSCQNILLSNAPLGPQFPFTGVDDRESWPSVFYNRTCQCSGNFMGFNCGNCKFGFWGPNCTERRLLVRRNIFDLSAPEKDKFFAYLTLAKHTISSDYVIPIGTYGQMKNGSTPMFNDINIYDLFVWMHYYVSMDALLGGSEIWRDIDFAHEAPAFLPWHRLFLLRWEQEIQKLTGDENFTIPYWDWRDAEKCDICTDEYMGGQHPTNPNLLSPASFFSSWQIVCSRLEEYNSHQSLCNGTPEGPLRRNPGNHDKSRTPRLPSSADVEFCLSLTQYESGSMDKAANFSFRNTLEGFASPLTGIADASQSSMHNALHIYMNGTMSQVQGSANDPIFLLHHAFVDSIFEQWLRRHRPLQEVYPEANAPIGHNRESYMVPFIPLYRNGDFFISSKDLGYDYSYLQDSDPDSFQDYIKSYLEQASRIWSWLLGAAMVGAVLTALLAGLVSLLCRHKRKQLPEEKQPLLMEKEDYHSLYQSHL

On to `O=C(O)CO` [glycolic acid], for which the skin irritant effect entry in the series with skin (glycolic acid applied alone at 10% w/w) was “mild skin irritant effect”; with skin (glycolic acid applied alone at 30% or 40% w/w), “moderate skin irritant”.
With alpha-arbutin [alpha arbutin], the “stability and efficiency relative to beta-arbutin” value at tyrosinase is listed as 50 times.
